Data published in patent US11813264B2, “PAR1 modulation to alter myelination” (Mayo Foundation for Medical Education and Research, priority 2014, dated 2023).
Where no end group is shown, it is not given here.

How the values were obtained:
Oli-neu oligodendrocytes = assay: Process retraction in Oli-neu oligodendrocytes (Phalloidin+ processes per cell); type: cell-based, mouse; details: 24 hours, PAR1-AP 100 μM, Klk1 300 nM; for number of processes per cell: Klk6 30, 150, 300 nM, thrombin 270 nM
Description: (§1) Oli-neu oligodendrocytes are derived from mouse primary oligodendrocyte cultures retrovirally transduced to constitutively express the t-neu oncogene (Jung et al., Eur J Neurosci 7:1245-1265, 1995). All morphology, signaling, and myelin gene expression studies using Oli-neu oligodendrocytes were performed in media containing DMEM, 1% N2, 2 mM Glutamax, 1 mM sodium pyruvate, 20 mM HEPES buffer, and 50 μM β-mercaptoethanol (Sigma Aldrich. To evaluate PAR and Klk6 gene expression in Oli-neu (Table 2), cells were differentiated by treatment with 1 mM N^6, 2′-O-dibutyryladenosine 3′, 5′-cyclic monophosphate disodium salt (dbcAMP) for 72 hours prior to harvesting for RNA isolation. All cells were maintained at 37° C. in 95% air and 5% CO2. Cell culture reagents were obtained from Life Technologies (Carlsbad, CA) unless otherwise indicated. All cell culture experiments were performed in triplicate and repeated at least twice.
(§2) PAR agonist-induced changes in oligodendrocyte morphology: To determine the effects of recombinant Klk6, Klk1, thrombin, or PAR1-AP on oligodendroglia, 3 DIV PAR1^+/+, PAR1^−/−, and PAR2^−/− oligodendrocytes, PAR1^+/+ OPCs immediately post purification, or Oli-neu cells were grown on cover slips in the presence of agonists for 24 h. For ATP toxicity assays, oligodendrocytes were incubated with ATP (50 μM, Sigma Aldrich) in the presence of Klk6 or Klk1. Following each treatment, oligodendrocyte and OPC cultures were immunolabeled for O4 to visualize the cell body and processes. Oli-neu processes were visualized by staining the actin cytoskeleton with Cy3-conjugated Phalloidin.
(§3) To assess the effects of Klk6 and other PAR1 agonists on oligodendrocyte morphology and process stability, 20× digital micrographs were overlaid with a 780 μm^2 grid and ImageJ software 1.45r (National Institutes of Health) used to record cell number and the number of processes crossing horizontal grid lines (Scarisbrick et al., Brain 125:1283-1296, 2002). Data are expressed as the mean number of O4^+ or Phalloidin^+ processes per DAPI^+ cell (±SEM).

spinal cord white matter = assay: Microinjection of Klk6 or PAR1-AP into spinal cord dorsal column white matter; type: in vivo, mouse
Description: In vivo effects of excess Klk6 or PAR1-AP in spinal cord white matter: All mice were administered Buprenorphine preoperatively (Buprenex, 0.03 mg/kg, intraperitoneal (i.p.), Reckitt Benckise, Slough, UK) and every 12 hours for the first 48 hours following surgery. Surgical anesthesia was induced in age-matched male C57BL6/J or PAR12/2 mice using Ketamine (Ketaset, 80 mg/kg, Fort Dodge Animal Health, Fort Dodge, IA) and Xylazine i.p. (Anased, 10 mg/kg, Lloyd Laboratories, Shenendoah, IA). A thoracic (T11-T12) laminectomy was performed and a 30-40 μm glass capillary needle inserted into a 10 μL gas-tight Hamilton Syringe (Hamilton Company, Reno, NV) used to deliver 2 μL of Klk6 (0.01 μg/μL (300 nM)), PAR1-AP (0.01 μg/μL (100 μM)), or vehicle (physiologic saline) alone (n=3 for each treatment group) using a stereotaxic injection system (Stoelting, Wood Dale, IL). Under micromanipulator control (MyNeurolab, Richmond, IL), the needle was inserted 350 μm into the dorsal column, infusion carried out over 5 minutes and the needle left in place for 3 minutes to avoid backflow. All mice received 0.5 mL of sterile saline and Baytril (2.5 mg/kg, Bayer Healthcare, Shawnee Mission, KS) i.p. postoperatively.
Seventy-two hours after microinjection of PAR1 agonists, mice were deeply anesthetized with Nembutal (50 mg/kg, i.p., Lundbeck, Deerfield, IL) and perfused transcardially with 4% PFA. Two millimeter transverse spinal cord segments encompassing the microinjection epicenter as well as 2 mm rostral and caudal were embedded in paraffin. Six micrometer sections were cut and slide mounted serially. Every sixth slide was stained with hematoxylin and eosin (H&E). Adjacent sections were immunostained for oligodendroglia using an antibody specific for CC-1/APC (ab16794, AbCam, Cambridge, MA), myelin using an antibody recognizing MBP (MAB386, Millipore, Bedford, MA), and standard avidin-biotin immunoperoxidase techniques (Scarisbrick et al., J Comp Neurol 431:347-361, 2001; and Scarisbrick et al. 2012b, supra). Stained sections were cover slipped with Permount (Fisher Scientific, Pittsburgh, PA) containing 2 mg/mL bisbenzamide to visualize nuclei (Sigma Aldrich).
Measurements of white matter lesion area were based on signs of pathology (vacuolation, tissue destruction, hemorrhage) in 20× digital images of H&E stained sections. The largest lesion area in each animal was used to determine mean maximal lesion area and expressed in μm^2. The integrity of MBP immunoreactivity was assessed in sections for 2,000 μm rostrocaudal to the microinjection site. The number of dorsal column CC-1^+/DAPI^+ cells was quantified in sections across […] of spinal cord extending rostrocaudal to the epicenter. The mean area of dorsal column white matter in the intact spinal cord was approximately […]. To put the number of CC-1^+ oligodendrocytes into context, the mean number CC-1V cells per mm^2 was evaluated as the mean number per […]. Sections stained for CC-1 were also stained for GFAP (Sigma Aldrich), allowing for the exclusion of CC-1^+ astrocytes; however, no examples of double labeled cells were observed.

[1] = test system: PLP and MBP RNA expression; assay: Myelin gene expression (PLP, MBP RNA) in Oli-neu oligodendrocytes, quantitative RT-PCR; type: cell-based, mouse; details: for PLP expression: 24 hours, Klk6 300 nM, thrombin 270 nM, PAR1-AP 100 μM, Klk1 300 nM
Description: as §1
Expression of oligodendrocyte PARs and Klk6-real-time quantitative PCR: Total RNA was isolated from cultured cells using RNA STAT-60 (Tel-Test, Friendswood, TX). Klk6, PAR1, or PAR2 RNA expression was determined in 0.5 μg of RNA with the iScript one-step RT-PCR kit with SYBR® Green and the iCycler iQ5 system (BioRad, Hercules, CA). Transcript copy number was determined using a standard curve prepared by parallel amplification of cDNA clones diluted to known copy number (Christophi et al., J Neurochem 91:1439-1449, 2004). Amplification of the housekeeping gene glyceraldehyde phosphate 3-dehydrogenase (GAPDH) was used to control for loading. The mean and standard error (SEM) of transcript copy number was determined and data expressed as RNA copy number on a logarithmic scale.
Regulation of oligodendrocyte myelin gene expression by PAR1 agonists: Primary murine oligodendrocytes (3 DIV) or Oli-neu oligodendrocytes were seeded at 3.5×10^5 cells/well in six-well tissue culture plates. Cells were then treated with Klk6 (30-300 nM), Klk1 (300 nM), thrombin (270 nM), or PAR1-AP (100 μM) for 24 hours prior to RNA isolation. Expression of myelin-associated genes, PLP, and MBP was examined by real-time quantitative RT-PCR. Expression levels of target genes were normalized to GAPDH and expressed as percent control.

[2] = test system: primary oligodendrocyte cultures (3 DIV); assay: ATP toxicity assay in oligodendrocytes; type: cell-based, mouse
Description: as §2, §3
(§4) The extent of oligodendrocyte morphological differentiation was determined by scoring O4^+/DAPI^+ oligodendrocyte morphology as simple (only primary processes, no secondary branching), incomplete (one or more primary process without secondary branching), complete (all primary processes with secondary branching), or membrane (complete secondary branching with membrane sheets) (Huang et al., Nat Neurosci 14:45-53, 2011). The mean number of cells in each morphology class was determined across treatments and expressed as percent of total O4^+/DAPI^+ cells.
(§5) Changes in OPC or oligodendrocyte morphology were quantified from five microscopic fields per cover slip with the mean and SEM calculated across three cover slips per experiment. Each experiment was repeated at least twice using independent cultures. Analysis of oligodendrocyte morphology was performed without knowledge of treatment groups.

[3] = test system: oligodendrocyte progenitor cells (OPCs); assay: OPC process outgrowth; type: cell-based, mouse; details: 24 h; for OPC process extension / outgrowth: Klk6 150 nM, thrombin 135 nM, Klk1 150 nM
Description: (§6) Oligodendrocyte Cultures: Purified cortical oligodendrocyte progenitor cells (OPCs) and differentiated oligodendrocytes were isolated from mixed glial cultures derived from postnatal day 1 mice (McCarthy and de Vellis, J Cell Blot 85:890-902, 1980). Glial cultures were grown in media containing DMEM, 2 mM Glutamax, 1 mM sodium pyruvate, 20 mM HEPES, and 10% heat-inactivated fetal calf serum (Atlanta Biologicals, Lawrenceville, GA). OPCs were isolated from 10 days-in-vitro (DIV) mixed glial cultures by overnight shaking and purified by differential adhesion. OPCs were seeded in defined Neurobasal A media containing 1% N2, 50 U/mL penicillin/streptomycin, 2 mM Glutamax, 1 mM sodium pyruvate, 0.45% glucose, and 50 μM β-mercaptoethanol (Sigma Aldrich, USA). OPCs were seeded at 3×10^4/cm^2 onto tissue culture plastic or 12 mm glass cover slips coated with poly-L-lysine (PLL, 10 μg/mL). After 24 h, cultures were 92-98% immunoreactive (IR) for sulfatide (O4) and by 72 hours at least 80% were also MBP-IR.
as §2, §3, §5

Erk1/2 phosphorylation = assay: Klk6-PAR signaling assay, Erk1/2 phosphorylation by Western blot in Oli-neu; type: cell-based, mouse; details: treatment alone; Klk6 10 minutes
Description: Klk6-PAR signaling assays: To examine the ability of Klk6 to mediate PAR-dependent signaling in oligodendrocytes, Oli-neu oligodendroglia (3.5×10^5 cells/well in six-well plates) were treated with Klk6 (150 nM) for 10 min, followed by protein harvest. Cell lysates were analyzed for phosphorylated or nonphosphorylated Erk1/2 by Western blot. In experiments to determine the role of PARs in Klk6 signaling, Oli-neu were preincubated with the PAR1 antagonist, SCH79797 dihydrochloride (50 nM, Tocris Biosciences, Minneapolis, MN) for 30 minutes prior to Klk6 application.
Western blot: Oli-neu lysates were obtained using a buffer containing 1% NP40, 0.5% deoxycholate, 10% glycerol, and 20 mM Tris base and separated on SDS-polyacrylamide gels prior to transfer. Membranes were blocked with 5% milk in TBS-T and incubated overnight with primary antibodies including rabbit anti-phospho-Erk1/2 (1:1,000, Cell Signaling Technology, Danvers, MA), followed with a species-appropriate horseradish peroxidase-conjugated secondary antibody (1:20,000 GE Healthcare Unlimited, UK). Signal was detected using Chemiluminescence Supersignal Pico (Pierce, Rockford, IL). Western blots were repeated three times from independent cultures, scanned, and quantified by densitometry (BioRad Quantity One 1-D Analysis Software, BioRad, Hercules, CA). Erk1/2 signal was normalized to its nonphosphorylated form. Equal loading was verified by reprobing blots for […] (Novus Biologicals, Littleton, CO).

[4] = test system: primary oligodendrocyte cultures (3 DIV); assay: Oligodendrocyte morphological differentiation scoring (simple, incomplete, complete, membrane), process and cell number; type: cell-based, mouse
Description: as §6, §2, §3, §4, §5

[5] = Klk6 150 nM, Klk1 300 nM, 24 hours

TFLLR-amide (TFLLR-NH2) [PAR1-AP, reference compound]
number of processes per cell (Oli-neu oligodendrocytes): significant decrease
maximal lesion area relative to saline alone (spinal cord white matter; PAR1+/+ mice): enhanced
reduction of CC-1+ cells in dorsal column white matter (spinal cord white matter; PAR1+/+ mice): ~15%
loss of MBP-immunoreactivity relative to saline alone (spinal cord white matter; PAR1+/+ mice, 72 hours): ~45%
rostrocaudal white matter pathology (spinal cord white matter; PAR1+/+ mice, 0.02 μg, 72 hours): 1,026.0±105.3 μm
white matter pathology (spinal cord white matter; PAR1-/- mice): absent
PLP expression [1]: significantly decreased

Nc1ncnc2c1ncn2[C@@H]1O[C@H](COP(=O)(O)OP(=O)(O)OP(=O)(O)O)[C@@H](O)[C@H]1O [ATP, reference compound]
number of processes per oligodendrocyte ([2]; ATP 50 μM alone): two-fold reduction
cells with complete morphology ([2]; ATP 50 μM alone, 24 h): significant decrease
cells with membrane morphology ([2]; ATP 50 μM alone, 24 h): small, but significant increase
percentage of cells with simple morphology ([2]; ATP 50 μM alone, 24 h): significant increase
oligodendrocyte number relative to control ([2]; ATP alone): significant decrease

thrombin
number of processes per cell (Oli-neu oligodendrocytes): significant decrease
number of OPCs [3]: no effect
OPC process extension / outgrowth [3]: inhibited
PLP expression [1]: significantly decreased

Klk1: Recombinant murine Klk1 expressed using a baculovirus system
Oli-neu cell number (Oli-neu oligodendrocytes; Klk6 30 nM): no effect
number of processes per cell (Oli-neu oligodendrocytes): no effect
Erk1/2 phosphorylation (Erk1/2 phosphorylation): No significant changes
number of OPCs [3]: no effect
OPC process extension / outgrowth [3]: comparable to controls
ATP-induced oligodendrocyte loss ([2]; co-application with ATP): did not increase
number of processes per oligodendrocyte ([2]; co-application with ATP 50 μM): did not impact
oligodendrocytes with membrane morphology ([2]; co-application with ATP 50 μM): significant decrease
oligodendrocyte morphology ([4]; 300 nM): did not significantly impact
oligodendrocyte number [4, 5]: did not significantly impact
processes per cell [4, 5]: did not significantly impact

N#CC(=C(/N)Sc1ccccc1N)/C(C#N)=C(\N)Sc1ccccc1N [U0126, reference compound]
PLP RNA expression ([1]; U0126 alone): No significant change
